Where a SMILES comes first, the peptide text is derived from it. Bridges are numbered along the chain shown (N, C = ends). [ ]: non-standard residue; d: D form. The star is where a group is joined. ξ: configuration not given here. Pentadecanoyl(3ξ-OH,15-Gua) = N=C(N)NCCCCCCCCCCCCC(O)CC(=O)*; d(aThr) = C[C@@H](O)[C@@H](N)C(=O)O
Tests used:
[1] = test system: Paenibacillus sp. strain NRRL B-50972; test: Antibiotic sensitivity on sLB agar; assay type: cell-based; conditions: growth after 24, 48, 72 hours at 30° C.
[2] = test system: Botrytis cinerea (BOTRCI); test: In vitro antifungal 96-well plate assay (PRESTOBLUE); assay type: cell-based; conditions: Minimum Inhibitory Concentration for 80%
Experimental: The in vitro antifungal 96-well plate assay utilizes the resazurin-based cell viability reagent PRESTOBLUE® as an indicator for fungal growth. […] The assay was prepared with three agricultural-relevant fungal diseases: Alternaria solani ([…]), Colletotrichum lagenarium (COLLLA), and Botrytis cinerea (BOTRCI).

[3] = test system: Alternaria solani (ALTESO); test: as above; assay type: cell-based; conditions: for potency of asparagine analogue relative to its glutamine counterpart: Fusaricidin A vs Fusaricidin B, LiF08a vs LiF08b; for potency of asparagine analogue relative to its glutamine counterpart / relative potency of analogues differing at amino acid positions (2) and (3): FIG. 17; for relative potency of analogues differing at amino acid positions (2) and (3): Fusaricidin A, LiF05a, LiF06a, LiF08a compared; for Efficacy in % found: 0.25 mg/mL, alone
[4] = test system: Colletotrichum lagenarium (COLLLA); test: as above; assay type: cell-based; conditions: Minimum Inhibitory Concentration for 80%
[5] = test system: Xanthomonas campestris (XANTAV); test: In vitro antibacterial 96-well plate assay (absorbance)
Experimental: (§1) The in vitro antibacterial 96-well plate assay uses absorbance as an indicator for bacterial growth. The assay measures the potency of a sample to inhibit bacterial growth by comparing the absorbance of the untreated wells to the sample wells. The last dilution/concentration that inhibits the growth of the bacteria is called the MIC (minimum inhibitory concentration) and this value can be used to compare the efficacy of different samples. The assay was evaluated with three agricultural-relevant bacterial diseases: Xanthomonas campestris (XANTAV), Pseudomonas syringae (PSDM™), and Erwinia carotovora (ERWICA).

[6] = test system: Pseudomonas syringae (PSDMTM); test: as above; conditions: NDR = no inhibition of bacterial growth at the highest concentrations tested
Experimental: as §1

[7] = test system: Erwinia carotovora (ERWICA); test: as above; conditions: NDR = no inhibition of bacterial growth at the highest concentrations tested
Experimental: as §1

`CCC[C@@H]1C[C@@H](C(=O)N[C@@H]([C@H]2O[C@H](SC)[C@H](O)[C@@H](O)[C@H]2O)[C@@H](C)O)N(C)C1` [Lincomycin] was tested, and the Sensitive/Resistant ([1]; antibiotic 25 μg/mL) was “Resistant”.

For `CC(C)[C@@H]1NC(=O)[C@@H](C(C)C)NC(=O)[C@@H](NC(=O)CC(O)CCCCCCCCCCCCN=C(N)N)[C@@H](C)OC(=O)[C@@H](C)NC(=O)[C@@H](CC(N)=O)NC(=O)[C@@H]([C@@H](C)O)NC1=O` (some centres unmarked) [Fusaricidin A] ({Pentadecanoyl(3ξ-OH,15-Gua)}-T[dV]V[d(aThr)][dN][dA]; ester 1-C), the “MIC80 BOTRCI” value [2] was 1.5 ppm, the “potency of asparagine analogue relative to its glutamine counterpart” value [3] was “over twice more potent” and the “relative potency of analogues differing at amino acid positions (2) and (3)” value [3] was “most potent”. For the same compound, the “MIC80 ALTESO” value ([3]; Minimum Inhibitory Concentration for 80%) was 1.6 ppm, the “Efficacy in % found” value ([3]; Table 23) was 39.0% and the “Efficacy in % found” value ([3]; Table 24) was 42.0%. For the same compound, the “MIC80 COLLLA” value [4] was 6.3 ppm, the “MIC80 XANTAV” value [5] was 24 ppm and the “MIC80 PSDMTM” value [6] was “NDR*”. For the same compound, the “MIC80 ERWICA” value [7] was 75 ppm.

In the case of `O=C(N[C@H](CO)[C@H](O)c1ccc([N+](=O)[O-])cc1)C(Cl)Cl` [Chloramphenicol], the Sensitive/Resistant ([1]; antibiotic 5 μg/mL) was “Resistant”.

`CC[C@@H](C)[C@H]1NC(=O)[C@@H](NC(=O)CC(O)CCCCCCCCCCCCN=C(N)N)[C@@H](C)OC(=O)[C@@H](C)NC(=O)[C@@H](CC(N)=O)NC(=O)[C@@H]([C@@H](C)O)NC(=O)[C@H]([C@@H](C)CC)NC1=O` (some centres unmarked) [LiF08a] ({Pentadecanoyl(3ξ-OH,15-Gua)}-T[dI]I[d(aThr)][dN][dA]; ester 1-C) was tested, and the “potency of asparagine analogue relative to its glutamine counterpart” value [3] was “over twice more potent” and the “relative potency of analogues differing at amino acid positions (2) and (3)” value [3] was “most potent”.

In the case of `CN[C@@H]1[C@H](O)[C@H](NC)[C@H]2O[C@@]3(O)C(=O)C[C@@H](C)O[C@H]3O[C@@H]2[C@H]1O` [Spectinomycin], the Sensitive/Resistant ([1]; antibiotic 100-250 μg/mL) was “Resistant (growth, albeit reduced,”.

In the case of `CN(C)[C@@H]1C(=O)C(C(N)=O)=C(O)[C@@]2(O)C(=O)C3=C(O)c4c(O)cccc4[C@@](C)(O)[C@H]3C[C@@H]12` [Tetracyclin], the Sensitive/Resistant ([1]; antibiotic 5 μg/mL) was “Sensitive”.

For `CC[C@H]1OC(=O)[C@H](C)[C@@H](O[C@H]2C[C@@](C)(OC)[C@@H](O)[C@H](C)O2)[C@H](C)[C@@H](O[C@@H]2O[C@H](C)C[C@H](N(C)C)[C@H]2O)[C@](C)(O)C[C@@H](C)C(=O)[C@H](C)[C@@H](O)[C@]1(C)O` [Erythromycin], the Sensitive/Resistant ([1]; antibiotic 5 μg/mL) was “Sensitive”.

— patent publication US11623944B2, “Paenibacillus strain, antifungal compounds, and methods for their use” (Bayer CropScience LP, priority 2015, dated 2023)
